Like-named read-outs stand apart in the source and are kept apart here.

Drawing on doi:10.1101/2024.08.19.608619, “Discovery of potent SARS-CoV-2 nsp3 macrodomain inhibitors uncovers lack of translation to cellular antiviral response” (bioRxiv, 2024), this text covers perc_inhibition_mean and inhibition for 21 compounds.

The target of test [1] is T1, SARS-CoV-2 nsp3-mac1 (Severe acute respiratory syndrome coronavirus 2, UniProt P0DTD1). Kind of test: biochemical. It is filed as biochemical. The conditions noted are these: SARS-CoV-2 nsp3 macrodomain TR-FRET single point. (TR-FRET usually uses a lanthanide donor and a delayed reading to cut background.)
Test [2] addresses T1, SARS-CoV-2 nsp3-mac1. Kind of test: biochemical. Further details: SARS-CoV-2 nsp3 macrodomain TR-FRET single point, per cent inhibition, n=2.
[3] abbreviates: read-out: perc_inhibition_mean, batch_name=ASAP-0000061-002.

Regarding `OCc1cn([C@@H]2CCCN(c3ncnc4[nH]ccc34)C2)nn1` [ASAP-0000047], at SARS-CoV-2 nsp3-mac1 [1] (concentration 50.0 uM), the perc_inhibition_mean is reported as -0.682%. Further, at SARS-CoV-2 nsp3-mac1 [2] (read-out: perc_inhibition_mean, batch_name=ASAP-0000047-001), the inhibition at 50 µM was -0.682%.

Take `C=CCn1c(Cc2ccccc2)nnc1Sc1ncnc2[nH]ccc12` [ASAP-0000048]: the perc_inhibition_mean at SARS-CoV-2 nsp3-mac1 [1] (concentration 50.0 uM) is listed as -7.711%. Also, the inhibition at 50 µM on SARS-CoV-2 nsp3-mac1 [2] (read-out: perc_inhibition_mean, batch_name=ASAP-0000048-001) was -7.71%.

Consider `Fc1ccc(F)c(Sc2ncnc3[nH]ccc23)c1` [ASAP-0000049], for which the perc_inhibition_mean at SARS-CoV-2 nsp3-mac1 [1] (concentration 50.0 uM) is -1.149%. Further, the inhibition at 50 µM at SARS-CoV-2 nsp3-mac1 [2] (read-out: perc_inhibition_mean, batch_name=ASAP-0000049-001) is -1.15%.

With `Cc1ccnc(C2CCN(c3ncnc4[nH]ccc34)CC2)n1` [ASAP-0000050], the perc_inhibition_mean at SARS-CoV-2 nsp3-mac1 [1] (concentration 50.0 uM) is reported as 3.465%. Moreover, at SARS-CoV-2 nsp3-mac1 [2] (read-out: perc_inhibition_mean, batch_name=ASAP-0000050-001), the inhibition at 50 µM was found to be 3.46%.

For `O=S1(=O)CCC[C@@H](CNc2ncnc3n[nH]cc23)C1` [ASAP-0000051], on SARS-CoV-2 nsp3-mac1 [1] (concentration 50.0 uM), the perc_inhibition_mean came to 4.593%. Besides, the inhibition at 50 µM at SARS-CoV-2 nsp3-mac1 [2] (read-out: perc_inhibition_mean, batch_name=ASAP-0000051-001) is 4.59%.

Consider `Cc1cccc(C)c1-n1nnnc1CSc1ncnc2[nH]cnc12` [ASAP-0000052], for which the perc_inhibition_mean at SARS-CoV-2 nsp3-mac1 [1] (concentration 50.0 uM) was 6.631%. The inhibition at 50 µM on SARS-CoV-2 nsp3-mac1 [2] (read-out: perc_inhibition_mean, batch_name=ASAP-0000052-001) is 6.63%.

On to `CCCNC(=O)[C@H]1CCCN(c2ncnc3[nH]ccc23)C1` [ASAP-0000053], for which the perc_inhibition_mean on SARS-CoV-2 nsp3-mac1 [1] (concentration 50.0 uM) is -4.36%. Also, on SARS-CoV-2 nsp3-mac1 [2] (read-out: perc_inhibition_mean, batch_name=ASAP-0000053-001), the inhibition at 50 µM is -4.36%.

Regarding `c1cnc([C@@H]2CCN(c3ncnc4[nH]ccc34)C2)cn1` [ASAP-0000054], the perc_inhibition_mean on SARS-CoV-2 nsp3-mac1 [1] (concentration 50.0 uM) is -1.697%. Further, the inhibition at 50 µM on SARS-CoV-2 nsp3-mac1 [2] (read-out: perc_inhibition_mean, batch_name=ASAP-0000054-001) is -1.7%.

In the case of `c1nc(N2CCC[C@@H](c3nc4c(s3)CCC4)C2)c2c[nH]nc2n1` [ASAP-0000055], on SARS-CoV-2 nsp3-mac1 [1] (concentration 50.0 uM), the perc_inhibition_mean turned out to be 3.826%. Moreover, on SARS-CoV-2 nsp3-mac1 [2] (read-out: perc_inhibition_mean, batch_name=ASAP-0000055-001), the inhibition at 50 µM was 3.83%.

As for `O[C@@]1(C(F)(F)F)CCCN(c2ncnc3n[nH]cc23)CC1` [ASAP-0000057], the perc_inhibition_mean at SARS-CoV-2 nsp3-mac1 [1] (concentration 50.0 uM) is listed as -4.139%. Also, the inhibition at 50 µM on SARS-CoV-2 nsp3-mac1 [2] (read-out: perc_inhibition_mean, batch_name=ASAP-0000057-001) is -4.14%.

On to `CN(C)[C@@H]1CCCN(C(=O)c2cnc3c(c2)c(=O)[nH]c(=O)n3C)CC1` [ASAP-0000058], for which the perc_inhibition_mean on SARS-CoV-2 nsp3-mac1 [1] (concentration 50.0 uM) is -8.971%. Further, the inhibition at 50 µM at SARS-CoV-2 nsp3-mac1 [2] (read-out: perc_inhibition_mean, batch_name=ASAP-0000058-001) is -8.97%.

As for `c1ccc(-c2n[nH]cc2CNc2cnc3[nH]ncc3c2)cc1` [ASAP-0000059], the perc_inhibition_mean on SARS-CoV-2 nsp3-mac1 [1] (concentration 50.0 uM) was -2.044%. Also, on SARS-CoV-2 nsp3-mac1 [2] (read-out: perc_inhibition_mean, batch_name=ASAP-0000059-001), the inhibition at 50 µM is -2.04%.

Take `COc1cc(Nc2ncnc3[nH]ccc23)ccc1NC(C)=O` [ASAP-0000060]: on SARS-CoV-2 nsp3-mac1 [1] (concentration 50.0 uM), the perc_inhibition_mean is recorded as -7.761%. In addition, the inhibition at 50 µM on SARS-CoV-2 nsp3-mac1 [2] (read-out: perc_inhibition_mean, batch_name=ASAP-0000060-001) was -7.76%.

Regarding `O=C(Nc1cnc2[nH]ncc2c1)c1ccncc1Cl` [ASAP-0000061], the perc_inhibition_mean at SARS-CoV-2 nsp3-mac1 [1] (concentration 50.0 uM) is reported as -0.272%; at SARS-CoV-2 nsp3-mac1 [1] (concentration 50.0 uM, n=2), -2.752%; on SARS-CoV-2 nsp3-mac1 [1] (concentration 100.0 uM, n=2) it was 2.961%. The inhibition at 50 µM on SARS-CoV-2 nsp3-mac1 [2] (read-out: perc_inhibition_mean, batch_name=ASAP-0000061-001) was -0.272%; on SARS-CoV-2 nsp3-mac1 [2] (setting [3]) it was -2.75%. The inhibition at 100 µM on SARS-CoV-2 nsp3-mac1 [2] (setting [3]) stood at 2.96%.

With `NC(=O)[C@@H]1CCN(C(=O)c2cnc3[nH]c(=O)[nH]c(=O)c3c2)C1` [ASAP-0000062], the perc_inhibition_mean at SARS-CoV-2 nsp3-mac1 [1] (concentration 50.0 uM) is -6.322%. On SARS-CoV-2 nsp3-mac1 [2] (read-out: perc_inhibition_mean, batch_name=ASAP-0000062-001), the inhibition at 50 µM is -6.32%.

On to `Brc1ccc(-n2nnnc2Sc2ncnc3[nH]ccc23)cc1` [ASAP-0000063], for which the perc_inhibition_mean on SARS-CoV-2 nsp3-mac1 [1] (concentration 50.0 uM) worked out at 12.69%. On SARS-CoV-2 nsp3-mac1 [2] (read-out: perc_inhibition_mean, batch_name=ASAP-0000063-001), the inhibition at 50 µM was found to be 12.7%.

Regarding `c1ccc(-c2cc(CNc3ncnc4[nH]ccc34)on2)cc1` [ASAP-0000064], the perc_inhibition_mean on SARS-CoV-2 nsp3-mac1 [1] (concentration 100.0 uM) is reported as -3.456%. Also, the inhibition at 100 µM on SARS-CoV-2 nsp3-mac1 [2] (read-out: perc_inhibition_mean, batch_name=ASAP-0000064-001) is -3.46%.

As for `CC1OCCC1(O)CNC(=O)c1ncnc2[nH]ccc12` (stereo not shown) [ASAP-0000065], the perc_inhibition_mean on SARS-CoV-2 nsp3-mac1 [1] (concentration 50.0 uM) is on record as 1.864%. Moreover, on SARS-CoV-2 nsp3-mac1 [2] (read-out: perc_inhibition_mean, batch_name=ASAP-0000065-001), the inhibition at 50 µM was 1.86%.

Consider `O=C(OCc1ccc(Cl)nc1)c1ncnc2[nH]ccc12` [ASAP-0000066], for which, on SARS-CoV-2 nsp3-mac1 [1] (concentration 50.0 uM), the perc_inhibition_mean is given as 6.084%. Further, the inhibition at 50 µM at SARS-CoV-2 nsp3-mac1 [2] (read-out: perc_inhibition_mean, batch_name=ASAP-0000066-001) was determined as 6.08%.

Turning to `O=C(Nc1nc2ccc(F)cc2[nH]1)c1cc(N2CCNC2=O)ccc1F` [ASAP-0000067], the perc_inhibition_mean on SARS-CoV-2 nsp3-mac1 [1] (concentration 50.0 uM) is -7.707%. Besides, the inhibition at 50 µM on SARS-CoV-2 nsp3-mac1 [2] (read-out: perc_inhibition_mean, batch_name=ASAP-0000067-001) is -7.71%.

`O=C(NCc1nc(-c2ccco2)n[nH]1)c1cc2nccn2c(=O)[nH]1` [ASAP-0000068]: the perc_inhibition_mean on SARS-CoV-2 nsp3-mac1 [1] (concentration 50.0 uM) is listed as -5.425%. Further, the inhibition at 50 µM on SARS-CoV-2 nsp3-mac1 [2] (read-out: perc_inhibition_mean, batch_name=ASAP-0000068-001) was -5.42%.
